Data published in patent US6444696B1, “Pyrazole derivatives P38 MAP kinase inhibitors” (Syntex (U.S.A.) LLC, priority 1998, dated 2002).
Counter-ions that a name gives are not always drawn.

Assays:
[1] = system: TNF-α Production In THP 1 Cells; experiment: Inhibition of LPS-induced TNF-α production in THP-1 cells, in vitro assay (ELISA); assay type: cell-based; details: Homo sapiens, LPS 0.5 μg/ml, 2 h, TNF-α by ELISA, read-out: IC50, μM (inhibition of TNF-α release)
Experimental: The ability of the compounds of this invention to inhibit the TNF-α release was determined using a minor modification of the methods described in described in Blifeld, C. et al. Transplantation, Vol. 51(2), 498-503, (1991).
THP-1 cells were suspended in culture medium [RPMI (Gibco-BRL, Gailthersburg, Md.) containing 15% fetal bovine serum, 0.02 mM 2-mercaptoethanol], at a concentration of 2.5×10^6 cells/ml and then plated in 96 well plate (0.2 ml aliquots in each well). Test compounds were dissolved in DMSO and then diluted with the culture medium such that the final DMSO concentration was […]. 20 μl aliquots of test solution or only medium with DMSO (control) were added to each well. The cells were incubated for 30 min., at 37° C. LPS (Sigma, St. Louis, Mo.) was added to the wells at a final concentration of 0.5 μg/ml, and cells were incubated for an additional 2 h. At the end of the incubation period, culture supernatants were collected and the amount of TNF-α present was determined using an ELISA assay as described below.
The amount of human TNF-α present was determined by a specific trapping ELISA assay using two anti-TNF-α antibodies (2TNF-H22 and 2TNF-H34) described in Reimund, J. M., et al. GUT. Vol. 39(5), 684-689 (1996).
Polystyrene 96-well plates were coated with 50 μl per well of antibody 2TNF-H22 in PBS (10 μg/ml) and incubated in a humidified chamber at 4° C. overnight. The plates were washed with PBS and then blocked with 5% nonfat-dry milk in PBS for 1 hour at room temperature and washed with 0.1% BSA (bovine serum albumin) in PBS.
TNF standards were prepared from a stock solution of human recombinant TNF-α (R&D Systems, Minneapolis, Minn.). The concentration of the standards in the assay began at 10 ng/ml followed by 6 half log serial dilution's.
25 μl aliquots of the above culture supernatants or TNF standards or only medium (control) were mixed with 25 μl aliquots of biotinylated monoclonal antibody 2TNF-H34 (2 μg/ml in PBS containing 0.1% BSA) and then added to each well. The samples were incubated for 2 h at room temperature with gentle shaking and then washed 3 times with 0.1% BSA in PBS. 50 μl of peroxidase-streptavidin (Zymed, S. San Francisco, Calif.) solution containing 0.416 μg/ml of peroxidase-streptavidin and 0.1% BSA in PBS was added to each well. The samples were incubated for an additional 1 h at room temperature and then washed 4 times with 0.1% BSA in PBS. 50 μl of O-phenylenediamine solution (1 μg/ml O-phenylene-diamine and 0.03% hydrogen peroxide in 0.2M citrate buffer pH 4.5) was added to each well and the samples were incubated in the dark for 30 min., at room temperature. Optical density of the sample and the reference were read at 450 nm and 650 nm, respectively. TNF-α levels were determined from a graph relating the optical density at 450 nm to the concentration used.
The IC50 value was defined as the concentration of the test compound corresponding to half-maximal reduction in 450 nm absorbance. Compounds of the invention were active in this assay. The activity of selected compounds is shown below.

p38 MAP kinase = biological target: T1, p38 MAP kinase (Homo sapiens, UniProt Q16539); experiment: Inhibition of p-38 (MAP) kinase, in vitro assay (transfer of γ-33P from ATP to Myelin Basic Protein); assay type: biochemical; details: phosphorylated recombinant p38 MAP kinase, MBP substrate, γ-33P-ATP, 30° C.; read-out: IC50, μM (p-38 inhibitory activity)
T1 construct: made in house; host or cells: E. coli (co-expressed with SEK-1 and MEKK to obtain the phosphorylated form)
Experimental: The p-38 MAP kinase inhibitory activity of compounds of this invention in vitro was determined by measuring the transfer of the γ-phosphate from γ-^33P-ATP by p-38 kinase to Myelin Basic Protein (MBP), using the a minor modification of the method described in Ahn, N. G.; et al. J. Biol. Chem. Vol. 266(7), 4220-4227, (1991).
The phosphorylated form of the recombinant p38 MAP kinase was expressed with SEK-1 and MEKK in E. Coli and then purified by affinity chromatography using a Nickel column.
The phosphorylated p38 MAP kinase was diluted in kinase buffer (20 mM 3-(N-morpholino)propanesulfonic acid, pH 7.2, 25 mM β-glycerol phosphate, 5 mM ethylene glycol-bis(beta-aminoethyl ether)-N,N,N′,N′-tetraacetic acid, 1 mM sodium vanadate, 1 mM dithiothreitol, 40 mM magnesium chloride). Test compound dissolved in DMSO or only DMSO (control) was added and the samples were incubated for 10 min at 30° C. The kinase reaction was initiated by the addition of a substrate cocktail containing MBP and γ-^33P-ATP. After incubating for an additional 20 min at 30° C., the reaction was terminated by adding 0.75% phosphoric acid. The phosphorylated MBP was then separated from the residual γ-^33P-ATP using a phosphocellulose membrane (Millipore, Bedford, Mass.) and quantitated using a scintillation counter (Packard, Meriden, Conn.).
Compounds of the invention were active in this assay.

T1 sequence (Q16539 whole entry): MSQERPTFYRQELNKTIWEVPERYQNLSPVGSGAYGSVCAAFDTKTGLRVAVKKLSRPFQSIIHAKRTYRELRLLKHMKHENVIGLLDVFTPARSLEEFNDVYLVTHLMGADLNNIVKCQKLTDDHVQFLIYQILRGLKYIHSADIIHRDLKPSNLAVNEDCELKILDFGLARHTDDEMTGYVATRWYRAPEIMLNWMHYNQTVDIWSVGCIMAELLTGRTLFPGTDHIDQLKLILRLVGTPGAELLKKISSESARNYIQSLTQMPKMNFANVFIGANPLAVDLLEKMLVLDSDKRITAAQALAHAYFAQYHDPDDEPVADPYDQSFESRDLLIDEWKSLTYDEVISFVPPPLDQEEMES

| IC50 [1] [µM] | IC50 (p38 MAP kinase) [µM] | melting point [°C] | Structure (SMILES) |
| --- | --- | --- | --- |
| 1.62 |  |  | Nc1c(C(=O)c2cccc(C=CS(N)(=O)=O)c2)cnn1-c1ccc(F)cc1 [compound 10, 5-amino-4-[3-(2-aminosulfonylethenyl)benzoyl]-1-(4-fluorophenyl)pyrazole] |
| 0.61 | 2.18 |  | Nc1c(C(=O)c2cccc(OCCCN3CCCCC3)c2)cnn1-c1ccc(F)cc1 [compound 21] |
|  | 1.25 |  | Nc1c(C(=O)c2cccc(CCS(N)(=O)=O)c2)cnn1-c1ccc(F)cc1 [compound 50, 5-Amino4-[3-(2-aminosulfonylethyl)benzoyl]-1-(4-fluorophenyl)pyrazole] |
|  | 1.74 |  | Nc1c(C(=O)c2cccc(CCCN3CCOCC3)c2)cnn1-c1ccc(F)cc1 [compound 6, 5-Amino-1-(4-fluorophenyl)-4-[3-(3-morpholin-4-ylpropyl)benzoyl]pyrazole hydrochloride] |
|  |  | 152.6 to 153.1 | CC(C)(O)C#Cc1cccc(C(=O)c2cnn(-c3ccc(F)cc3)c2N)c1 [compound 87, 5-amino-1-(4-fluorophenyl)-4-[3-(3-hydroxy-3-methyl-but-1-ynyl)benzoyl]pyrazole] |
| 0.83 | 2.72 |  | N#CCCCOc1cccc(C(=O)c2cnn(-c3ccc(F)cc3)c2N)c1 [compound 27] |
|  |  | 124.3 to 126.6 | Nc1c(C(=O)c2cccc(OCC(=O)N3CCOCC3)c2)cnn1-c1ccc(F)cc1 [compound 35, 5-amino-1-(4-fluorophenyl)-4-[3-(morpholin-4-ylcarbonylmethyloxy)benzoyl]pyrazole] |
|  |  | 74.1 to 75.7 | CCC1(CC)OC[C@H](COc2cccc(C(=O)c3cnn(-c4ccc(F)cc4)c3N)c2)O1 [compound 173, 5-amino-1-(4-fluorophenyl)-4-{3-[(2,2-diethyl-1,3-dioxolan-4(S)-yl)methoxy]benzoyl}pyrazole] |
|  |  | 176.1 to 177.3 | Nc1c(C(=O)c2cccc(OCc3ccccn3)c2)cnn1-c1ccc(F)cc1 [compound 82, 5-amino-1-(4-fluorophenyl)-4-[3-(pyridin-2-ylmethoxy)benzoyl]pyrazole] |
| 0.17 | 6.52 | 165.2 to 165.8 | Nc1cccc(C(=O)c2cnn(-c3ccc(F)cc3)c2N)c1 [compound 43, 5-amino-4-(3-aminobenzoyl)-1-(4-fluorophenyl)pyrazole] |
|  |  | 174.5 to 178 | Nc1c(C(=O)c2cccc(OCCn3ncccc3=O)c2)cnn1-c1ccc(F)cc1 [compound 128] |

More lines, now with the values behind:

| Structure (SMILES) | IC50 [1] [µM] | IC50 (p38 MAP kinase) [µM] | melting point [°C] |
| --- | --- | --- | --- |
| Nc1c(C(=O)c2cccc(OCCN3CCOCC3)c2)cnn1-c1ccc(F)cc1 [compound 14, 5-Amino-1-(4-fluorophenyl)-4-[3-{2-(morpholin-4-yl)ethoxy}benzoyl]pyrazole hydrochloride] |  | 1.27 |  |
| Nc1c(C(=O)c2ccc(C=CCN3CCOCC3)cc2)cnn1-c1ccc(F)cc1 [compound 2] | 6.3 | 3.29 | 166.7 to 168.2 |
| CN1CCN(C(=O)COc2cccc(C(=O)c3cnn(-c4ccc(F)cc4)c3N)c2)CC1 [compound 38] | 0.69 | 6.31 |  |
| Nc1c(C(=O)c2ccc(CCCO)cc2)cnn1-c1ccccc1 [compound 1] | 1.77 | 1.81 | 148 to 152.5 |
| Nc1c(C(=O)c2cccc(C=CCN3CCOCC3)c2)cnn1-c1ccc(F)cc1 [compound 4] | 1.26 | 6.18 | 161.6 to 162.8 |
| COc1cccc(-n2ncc(C(=O)c3cccc(-c4cccnc4)c3)c2N)c1 (as salt: HCl) [compound 66, 5-amino-1-(3-methoxyphenyl)-4-[3-(pyridin-3-yl)benzoyl]pyrazole] |  |  | 256.1 to 256.5 |
| Cc1ccc(-n2ncc(C(=O)c3cccc(-c4cccnc4)c3)c2N)cc1 (as salt: HCl) [compound 65, 5-amino-1-(4-methylphenyl)-4-[3-(pyridin-3-yl)benzoyl]pyrazole] |  |  | 281.3 to 282.8 |
| CN1CCN(CCCc2cccc(C(=O)c3cnn(-c4ccc(F)cc4)c3N)c2)CC1 (as salt: HCl) [compound 30, 5-amino-1-(4-fluorophenyl)-4-{3-[3-(4-methylpiperazin-1-yl)propyl]benzoyl}pyrazole] |  |  | 254.5 to 254.9 |
| Nc1c(C(=O)c2cccc(C#CCN3CCOCC3)c2)cnn1-c1ccc(F)cc1 [compound 3, 5-Amino-1-(4-fluorophenyl)-4-[3-{3-(morpholin-4-yl)prop-1-ynyl}benzoyl]pyrazole] |  | 1.78 |  |
| Nc1c(C(=O)c2cccc(OCCN3CCOCC3)c2)cnn1-c1ccc(F)cc1 [compound 13, 5-amino-1-(4-fluorophenyl)-4-[3-(2-morpholin-4-ylethoxy)benzoyl]pyrazole] | 0.77 |  |  |
| CC(=O)OCC(COc1cccc(C(=O)c2cnn(-c3ccc(F)cc3)c2N)c1)OC(C)=O (stereo in doubt) [compound 165, 5-amino-1-(4-fluorophenyl)-4-[3-{2(S),3-(diacetoxy)propoxy}benzoyl]pyrazole] |  |  | 91.4 to 92.7 |
| Nc1c(C(=O)c2cccc(N3CCC(Cc4ccccc4)CC3)c2)cnn1-c1ccc(F)cc1 [compound 33] | 0.14 | 1.12 | 156.2 to 160.9 |
| Nc1c(C(=O)c2cccc(C(O)CO)c2)cnn1-c1ccc(F)cc1F (stereo not shown) [compound 103, 5-amino-1-(2,4-difluorophenyl)-4-[3-(1,2-dihydroxyethyl)benzoyl]pyrazole] |  |  | 59 to 64 |
| Nc1c(C(=O)c2cccc(CCCN3CCS(=O)(=O)CC3)c2)cnn1-c1ccc(F)cc1F [compound 92, 5-amino-1-(2,4-difluorophenyl)-4-[3-{3-(S,S-dioxo-thiomorpholin-4-yl)propyl}benzoyl]pyrazole] |  |  | 123.8 to 125.9 |
| Nc1c(C(=O)c2cccc(CCC3(O)CCCC3)c2)cnn1-c1ccc(F)cc1F [compound 95, 5-amino-1-(2,4-difluorophenyl)-4-[3-{2-(1-hydroxycyclopentyl)ethyl}benzoyl]pyrazole] |  |  | 120.3 to 121 |
| Nc1c(C(=O)c2cccc(C#CCN3CCCCC3)c2)cnn1-c1ccc(F)cc1 [compound 9, 5-amino-1-(4-fluorophenyl)-4-[3-{3-(piperidin-1-yl)prop-1-ynyl}benzoyl]pyrazole.HCl] |  | 1.32 |  |
